From the supplement of paper PMC10307832

Legend:
Test in all cases: relative viability (nuclei count vs DMSO), 5 days (fraction); higher = more cells survive
Carfilzomib + OSI-027 = compound: CC(C)C[C@H](NC(=O)[C@H](CCc1ccccc1)NC(=O)CN1CCOCC1)C(=O)N[C@@H](Cc1ccccc1)C(=O)N[C@@H](CC(C)C)C(=O)[C@@]1(C)CO1 [Carfilzomib] + COc1cccc2cc(-c3nc([C@H]4CC[C@H](C(=O)O)CC4)n4ncnc(N)c34)[nH]c12 [OSI-027] (partner 0.5 µM)
Outline: (§1)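 Nuclei were stained with Hoechst during a one-step fixation (final 0.05% Triton X-100, 1% formaldehyde, 1 ug/ml Hoechst) carried out 5 days after dosing, then counted on 4× images. The cells, lung cancer lines in 1536-well plates, had been dosed by pin tool the day after seeding with one drug alone or a fixed anchor-drug dose plus five library-drug doses (not always all listed) in √10 steps. Relative viability is the nuclei count in treated wells divided by that in vehicle wells, and each value is the median of duplicate plates.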

Crizotinib + Pemetrexed = compound: C[C@@H](Oc1cc(-c2cnn(C3CCNCC3)c2)cnc1N)c1c(Cl)ccc(F)c1Cl [Crizotinib] + Nc1nc2[nH]cc(CCc3ccc(C(=O)N[C@@H](CCC(=O)O)C(=O)O)cc3)c2c(=O)[nH]1 [Pemetrexed] (partner 0.2 µM)
Outline: as §1

Olaparib + Trametinib = compound: O=C(c1cc(Cc2n[nH]c(=O)c3ccccc23)ccc1F)N1CCN(C(=O)C2CC2)CC1 [Olaparib] + CC(=O)Nc1cccc(-n2c(=O)n(C3CC3)c(=O)c3c(Nc4ccc(I)cc4F)n(C)c(=O)c(C)c32)c1 [Trametinib] (partner 0.02 µM)
Outline: as §1

Olaparib + Foretinib = compound: O=C(c1cc(Cc2n[nH]c(=O)c3ccccc23)ccc1F)N1CCN(C(=O)C2CC2)CC1 [Olaparib] + COc1cc2c(Oc3ccc(NC(=O)C4(C(=O)Nc5ccc(F)cc5)CC4)cc3F)ccnc2cc1OCCCN1CCOCC1 [Foretinib] (partner 0.25 µM)
Outline: as §1

| Cell Line | relative viability (Carfilzomib + OSI-027; first compound 0.001 µM) | relative viability (Carfilzomib + OSI-027; first compound 0.003162 µM) | relative viability (Carfilzomib + OSI-027; first compound 0.01 µM) | relative viability (Carfilzomib + OSI-027; first compound 0.03162 µM) | relative viability (Carfilzomib + OSI-027; first compound 0.1 µM) | relative viability (Crizotinib + Pemetrexed; first compound 0.01 µM) | relative viability (Crizotinib + Pemetrexed; first compound 0.03162 µM) | relative viability (Crizotinib + Pemetrexed; first compound 0.1 µM) | relative viability (Crizotinib + Pemetrexed; first compound 0.3162 µM) | relative viability (Crizotinib + Pemetrexed; first compound 1 µM) | relative viability (Olaparib + Trametinib; first compound 0.08 µM) | relative viability (Olaparib + Trametinib; first compound 0.253 µM) | relative viability (Olaparib + Trametinib; first compound 2.53 µM) | relative viability (Olaparib + Trametinib; first compound 8 µM) | relative viability (Olaparib + Foretinib; first compound 0.08 µM) | relative viability (Olaparib + Foretinib; first compound 0.253 µM) | relative viability (Olaparib + Foretinib; first compound 2.53 µM) | relative viability (Olaparib + Foretinib; first compound 8 µM) |
| --- | --- | --- | --- | --- | --- | --- | --- | --- | --- | --- | --- | --- | --- | --- | --- | --- | --- | --- |
| NCI-H596 | 0.657 | 1 | 0.684 | 0.372 | 0.149 | 0.462 | 0.48 | 0.509 | 0.458 | 0.509 | 0.789 | 0.719 | 0.82 | 0.637 | 0.927 | 0.82 | 0.828 | 0.534 |
| NCI-H2347 | 0.415 | – | 0.366 | 0.26 | 0.217 | 0.387 | 0.441 | 0.446 | 0.457 | 0.416 | 0.282 | 0.274 | 0.274 | 0.248 | 0.902 | 0.945 | 0.786 | 0.977 |
| HCC-78 | 0.332 | 0.318 | 0.387 | 0.359 | 0.227 | 0.88 | 0.865 | 0.889 | 0.855 | – | 0.861 | 0.647 | 0.716 | 0.707 | 0.622 | 0.562 | 0.557 | 0.514 |
| NCI-H1650 | 0.656 | 0.496 | 0.162 | 0.142 | 0.198 | 0.308 | 0.403 | 0.334 | 0.37 | 0.408 | 0.6 | 0.503 | 0.62 | 0.565 | 1.2 | 0.996 | 1.15 | 1.35 |
| COR-L23 | 0.455 | 0.908 | 0.762 | 0.144 | 0.0646 | 0.19 | 0.189 | 0.201 | 0.207 | 0.199 | 0.661 | 0.642 | 0.498 | 0.451 | 1.08 | 0.842 | 0.797 | 0.567 |
| NCI-H322M | 0.592 | 0.624 | 0.606 | 0.462 | 0.332 | – | 0.656 | 0.593 | 0.649 | 0.656 | 0.496 | 0.57 | 0.577 | 0.523 | 1.04 | 0.964 | 0.979 | 0.718 |
| NCI-H2085 | 0.59 | 0.799 | 0.64 | 0.264 | 0.27 | 0.808 | 0.978 | 0.856 | 0.749 | 0.904 | 0.619 | 0.528 | 0.504 | 0.523 | 1.1 | 0.831 | 0.916 | 0.886 |
| NCI-H2023 | 0.386 | 0.435 | 0.467 | 0.147 | 0.0792 | 0.149 | 0.226 | 0.172 | 0.189 | 0.209 | 0.59 | 0.514 | 0.525 | 0.489 | 0.931 | 0.733 | 0.775 | 0.733 |
| LU99A | 0.293 | 0.309 | 0.317 | 0.275 | 0.192 | 0.165 | 0.167 | 0.173 | 0.142 | 0.173 | 0.525 | 0.535 | 0.473 | 0.466 | 0.826 | 0.646 | 0.608 | 0.537 |
| NCI-H2228 | 0.506 | 0.736 | 0.397 | 0.0668 | 0.0974 | 0.338 | 0.324 | 0.296 | 0.352 | 0.317 | 0.609 | 0.344 | 0.495 | 0.521 | 0.884 | 0.767 | 0.805 | 0.765 |
| NCI-H1395 | 0.526 | 0.734 | 0.642 | 0.5 | 0.309 | 0.91 | – | 0.888 | 0.731 | 0.88 | 1.11 | 0.876 | 0.852 | 0.629 | 1.04 | 0.87 | 0.842 | 0.563 |
| HCC-15 | 0.706 | 0.801 | 0.763 | 0.279 | 0.0802 | 0.234 | 0.222 | 0.233 | 0.209 | 0.213 | 0.422 | 0.387 | 0.39 | 0.353 | 1.23 | 0.95 | 1.07 | 0.868 |
| RERF-LC-KJ | 0.551 | 0.525 | 0.72 | 0.322 | 0.221 | 0.475 | 0.459 | 0.461 | 0.473 | 0.517 | 0.98 | 0.825 | 0.949 | 0.878 | 0.922 | 0.797 | 1 | 0.919 |
| NCI-H647 | 0.562 | 0.747 | 0.583 | 0.0357 | 0.0226 | 0.162 | 0.188 | 0.146 | 0.177 | 0.186 | 0.471 | 0.424 | 0.54 | 0.523 | 1.19 | 1.04 | 1.13 | 1.07 |
| 201T | 0.749 | 0.795 | 0.884 | 0.437 | 0.31 | 0.296 | 0.279 | 0.32 | 0.324 | 0.331 | 0.682 | 0.695 | 0.726 | 0.668 | 1.19 | 1.12 | 1.07 | 1.05 |
